Source: publication PMC2946983 (Bioorganic & medicinal chemistry, 2010)

Experiments:
[1] = system: human serotonin 5-HT2C receptor; details: isolated natural product; cited from earlier work
[2] = molecular target: T1, cloned human serotonin 5-HT1A receptor (Homo sapiens, UniProt P08908); assay: radioligand binding; details: for affinity for 5-HT1A receptor: stated in words
T1 sequence (P08908 1-422): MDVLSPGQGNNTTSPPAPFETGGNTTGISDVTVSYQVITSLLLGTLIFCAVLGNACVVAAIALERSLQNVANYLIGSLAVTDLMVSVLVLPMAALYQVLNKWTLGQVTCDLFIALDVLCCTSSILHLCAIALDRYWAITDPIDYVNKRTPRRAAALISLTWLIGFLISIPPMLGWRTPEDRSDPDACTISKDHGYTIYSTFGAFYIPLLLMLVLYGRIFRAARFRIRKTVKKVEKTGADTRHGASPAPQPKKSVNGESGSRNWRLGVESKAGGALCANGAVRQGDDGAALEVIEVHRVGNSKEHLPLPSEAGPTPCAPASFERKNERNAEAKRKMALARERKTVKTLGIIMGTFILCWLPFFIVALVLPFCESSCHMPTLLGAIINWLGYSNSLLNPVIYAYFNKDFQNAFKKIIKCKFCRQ

[3] = molecular target: cloned human serotonin 5-HT2A receptor (Homo sapiens, UniProt P28223); assay: radioligand binding; details: for Binding Affinity (Ki nM) 5-HT2A±SEM: n = 3, ND = not detected at highest concentration tested
Chain of cloned human serotonin 5-HT2A receptor (P28223 whole entry): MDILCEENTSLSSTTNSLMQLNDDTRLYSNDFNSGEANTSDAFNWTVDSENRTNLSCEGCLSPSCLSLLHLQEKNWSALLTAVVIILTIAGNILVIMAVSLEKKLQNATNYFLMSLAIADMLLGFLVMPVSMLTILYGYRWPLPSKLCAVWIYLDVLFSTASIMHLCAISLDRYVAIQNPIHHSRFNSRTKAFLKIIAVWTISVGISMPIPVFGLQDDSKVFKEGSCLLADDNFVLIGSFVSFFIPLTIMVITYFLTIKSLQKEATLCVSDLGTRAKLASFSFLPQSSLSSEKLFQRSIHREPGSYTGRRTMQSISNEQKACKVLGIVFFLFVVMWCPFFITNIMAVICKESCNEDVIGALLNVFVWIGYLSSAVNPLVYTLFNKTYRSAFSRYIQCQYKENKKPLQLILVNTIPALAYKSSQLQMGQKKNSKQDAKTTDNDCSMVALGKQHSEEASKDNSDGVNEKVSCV

[4] = molecular target: T2, cloned human serotonin 5-HT2C receptor (Homo sapiens, UniProt P28335); assay: radioligand binding
T2 sequence (P28335 33-458): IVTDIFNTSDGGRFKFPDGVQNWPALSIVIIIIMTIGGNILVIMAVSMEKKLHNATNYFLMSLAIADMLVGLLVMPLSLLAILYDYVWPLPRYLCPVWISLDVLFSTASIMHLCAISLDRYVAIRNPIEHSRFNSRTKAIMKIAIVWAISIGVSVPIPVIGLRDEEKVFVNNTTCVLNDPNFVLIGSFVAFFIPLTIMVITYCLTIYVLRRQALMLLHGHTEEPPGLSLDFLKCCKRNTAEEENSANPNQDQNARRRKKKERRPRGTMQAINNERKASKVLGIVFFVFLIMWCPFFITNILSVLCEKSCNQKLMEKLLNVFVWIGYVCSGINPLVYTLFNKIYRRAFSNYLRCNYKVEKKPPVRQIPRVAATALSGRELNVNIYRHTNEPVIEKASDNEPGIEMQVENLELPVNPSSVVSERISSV

[5] = read-out: radioligand affinity KD ± S.D., saturation isotherm

Compound	affinity for 5-HT1A receptor [2]	Binding Affinity (Ki nM) 5-HT2A±SEM [3]	other results
CN1C(=N)NC(=Cc2c[nH]c3cc(Br)ccc23)C1=O [6-bromo-2′-de-N-methylaplysinopsin]	–	–	selectivity for 5-HT2C over 5-HT2A receptor [1]: > 40 fold
CN1C(=N)NC(=O)/C1=C\c1c[nH]c2cc(Cl)c(Cl)cc12 [Compound 4, (E)-2-amino-5-[(5,6-dichloro-1H-indol-3-yl)methylene]-1-methyl-1H-imidazol-4(5H)-one]	little or no apparent affinity	little or no apparent affinity	Binding Affinity (Ki nM) 5-HT2C±SEM ([4]; n = 3): little or no apparent affinity
CN1C(=N)N(C)/C(=C/c2c[nH]c3cc(Cl)ccc23)C1=O [Compound 14, (E)-5-[(6-chloro-1H-indol-3yl)methylene]-2-imino-1,3-dimethylimidazolidin-4-one]	lack of affinity	lack of affinity	–
CN1C(=N)N(C)/C(=C/c2c[nH]c3cc(Br)ccc23)C1=O [Compound 15, 5-(6-bromo-1H-indol-3-ylmethylene)-2-imino-1,3-dimethyl-imidazolidin-4-one]	–	not detectable	Ki Selectivity Ratio 5-HT2A/5-HT2C [4]: >45
CN1C(=N)N(C)/C(=C/c2c[nH]c3cc(Cl)c(Cl)cc23)C1=O [Compound 16, (E)-5-[(5,6-dichloro-1H-indol-3-yl)methylene]-2-imino-1,3-dimethylimidazolidin-4-one]	no detectable affinity	no detectable affinity	–
COc1ccccc1N1CCN(CCN(C(=O)c2ccc(F)cc2)c2ccccn2)CC1 [[^3H]MPPF, 4-(2′-Methoxy)-phenyl-1-[2′-(N-2″-pyridinyl)-p-fluorobenzamido]ethyl-piperazine, reference compound]	–	–	Kd [2, 5]: 0.267 ± 0.036 nM
CN1CN(c2ccccc2)C2(CCN(CCCC(=O)c3ccc(F)cc3)CC2)C1=O [[^3H]methylspiperone, N-Methyl-8-[4-(4-fluorophenyl)-4-oxobutyl]-1-phenyl-1,3,8-triazaspiro-[4.5]decan-4-one, reference compound]	–	–	Kd [3, 5]: 0.246 ± 0.042 nM
